Columns and labels:
[1] = target: T1, angiotensin converting enzyme (Rattus norvegicus, UniProt P47820); assay: In vivo test for inhibition of angiotensin converting enzyme: pressor responses to angiotensin I and II in anaesthetised rats
T1 construct: were each tested in anaesthetised rats; from tissue; host or cells: whole animal (anaesthetised rat)
T1 sequence (P47820 36-1313): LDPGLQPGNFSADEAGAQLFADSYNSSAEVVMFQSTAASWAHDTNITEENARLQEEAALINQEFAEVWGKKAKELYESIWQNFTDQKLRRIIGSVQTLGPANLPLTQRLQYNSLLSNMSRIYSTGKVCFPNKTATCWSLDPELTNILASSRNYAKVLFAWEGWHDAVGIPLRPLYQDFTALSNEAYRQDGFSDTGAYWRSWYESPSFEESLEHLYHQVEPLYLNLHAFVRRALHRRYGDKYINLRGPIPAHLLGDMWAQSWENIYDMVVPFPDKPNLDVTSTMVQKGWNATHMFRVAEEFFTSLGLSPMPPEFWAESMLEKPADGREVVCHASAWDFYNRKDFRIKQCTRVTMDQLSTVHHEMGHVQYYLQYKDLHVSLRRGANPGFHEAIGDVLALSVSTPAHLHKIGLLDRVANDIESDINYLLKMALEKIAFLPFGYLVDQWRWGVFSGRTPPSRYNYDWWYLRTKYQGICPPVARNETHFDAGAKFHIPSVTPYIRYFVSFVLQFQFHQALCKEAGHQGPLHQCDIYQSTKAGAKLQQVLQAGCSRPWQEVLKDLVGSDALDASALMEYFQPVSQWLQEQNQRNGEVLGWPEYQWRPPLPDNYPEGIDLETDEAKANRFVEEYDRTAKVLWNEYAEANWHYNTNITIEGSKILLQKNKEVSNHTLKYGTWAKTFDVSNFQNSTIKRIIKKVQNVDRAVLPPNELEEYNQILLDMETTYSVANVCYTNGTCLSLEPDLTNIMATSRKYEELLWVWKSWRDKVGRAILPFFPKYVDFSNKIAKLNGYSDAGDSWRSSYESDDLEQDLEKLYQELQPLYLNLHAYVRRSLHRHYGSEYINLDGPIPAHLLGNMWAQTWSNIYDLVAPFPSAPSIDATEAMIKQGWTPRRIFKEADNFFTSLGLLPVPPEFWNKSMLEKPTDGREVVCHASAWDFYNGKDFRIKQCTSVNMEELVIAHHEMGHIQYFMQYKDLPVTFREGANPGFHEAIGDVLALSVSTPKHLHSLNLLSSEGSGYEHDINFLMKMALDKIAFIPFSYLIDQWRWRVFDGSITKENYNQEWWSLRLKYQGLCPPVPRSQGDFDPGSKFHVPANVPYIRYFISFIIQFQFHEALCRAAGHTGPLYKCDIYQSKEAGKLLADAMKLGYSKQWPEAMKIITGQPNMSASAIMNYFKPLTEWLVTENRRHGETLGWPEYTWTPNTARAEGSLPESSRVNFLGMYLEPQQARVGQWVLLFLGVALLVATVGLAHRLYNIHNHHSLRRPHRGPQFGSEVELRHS
Experimental: 2. In vivo test for inhibition of angiotensin converting enzyme.
The compounds of examples 1,2,4 & 5 were each tested in anaesthetised rats for their ability to reduce the pressor responses to angiotensin I, but not those to angiotensin II. The dose of angiotensin I was 300 n.g/kg (i.v) and the dose of angiotensin II was 100 ng/kg (i.v).
The results given are the mean of those obtained from the given number of rats.
'I' is the increase in diastolic blood pressure (mm Hg) to angiotensin I (control reponse).
'%R' is the percentage reduction in control angiotensin I response after the intervals (min) from dosage.

[2] = tested on: Spontaneously hypertensive rats; assay: Antihypertensive activity in spontaneously hypertensive rats (tail cuff method); type: in vivo
Experimental: 3. Antihypertensive Activity
Each determination of blood pressure was the mean of at least 6 readings. Spontaneously hypertensive rats (ages 12-18 weeks) with systolic blood pressures 170 mmH:g were considered hypertensive.
The initial blood pressure and heart rats were determined and recorded together with the % changes occuring at intervals thereafter: […]

[3] = target: T2, rat lung angiotensin converting enzyme preparation (Rattus norvegicus, UniProt P47820); assay: In vitro test for inhibition of angiotensin converting enzyme; type: biochemical; conditions: mean of 3 experiments; read-out: 50% inhibitior. (IC50) of rat lung angiotensin converting enzyme preparation
T2 construct: rat lung angiotensin converting enzyme preparation; from tissue; host or cells: rat lung
T2 sequence (P47820 36-1313): T1 sequence (P47820 36-1313)
From the text: 1. In vitro test for inhibition of angiotensin converting enzyme

[4] = 0.10 mg/kg i.v, 5 min from dosage
[5] = 0.10 mg/kg i.v, 10 min from dosage
[6] = 0.10 mg/kg i.v, 15 min from dosage
[7] = 0.10 mg/kg i.v, 25 min from dosage
[8] = 0.10 mg/kg i.v, 30 min from dosage
[9] = 0.10 mg/kg i.v, 40 min from dosage
[10] = 0.10 mg/kg i.v, 45 min from dosage
[11] = 0.10 mg/kg i.v, 50 min from dosage
[12] = 30 mg/kg p.o., 1 hour post dose
[13] = 30 mg/kg p.o., 2 hours post dose
[14] = 30 mg/kg p.o., 4 hours post dose
[15] = 30 mg/kg p.o., 6 hours post dose
[16] = 30 mg/kg p.o., 24 hours post dose
[17] = 0.03 mg/kg i.v, 5 min from dosage
[18] = 0.03 mg/kg i.v, 10 min from dosage
[19] = 0.03 mg/kg i.v, 15 min from dosage
[20] = 0.30 mg/kg i.v, 5 min from dosage
[21] = 0.30 mg/kg i.v, 10 min from dosage
[22] = 0.30 mg/kg i.v, 15 min from dosage
[23] = 0.30 mg/kg i.v, 25 min from dosage
[24] = 0.30 mg/kg i.v, 30 min from dosage
[25] = 0.30 mg/kg i.v, 40 min from dosage
[26] = 0.30 mg/kg i.v, 45 min from dosage
[27] = 0.30 mg/kg i.v, 50 min from dosage
[28] = 10 mg/kg p.o., 1 hour post dose
[29] = 10 mg/kg p.o., 4 hours post dose
[30] = 10 mg/kg p.o., 6 hours post dose
[31] = 10 mg/kg p.o., 24 hours post dose

| Substance | %R percentage reduction in control angiotensin I response [1, 4] [%] | %R percentage reduction in control angiotensin I response [1, 5] [%] | %R percentage reduction in control angiotensin I response [1, 6] [%] | %R percentage reduction in control angiotensin I response [1, 7] [%] | %R percentage reduction in control angiotensin I response [1, 8] [%] | %R percentage reduction in control angiotensin I response [1, 9] [%] | %R percentage reduction in control angiotensin I response [1, 10] [%] | %R percentage reduction in control angiotensin I response [1, 11] [%] | %R percentage reduction in control angiotensin I response [1, 17] [%] | %R percentage reduction in control angiotensin I response [1, 18] [%] | %R percentage reduction in control angiotensin I response [1, 19] [%] | %R percentage reduction in control angiotensin I response [1, 20] [%] | %R percentage reduction in control angiotensin I response [1, 21] [%] | %R percentage reduction in control angiotensin I response [1, 22] [%] | %R percentage reduction in control angiotensin I response [1, 23] [%] | %R percentage reduction in control angiotensin I response [1, 24] [%] | %R percentage reduction in control angiotensin I response [1, 25] [%] | %R percentage reduction in control angiotensin I response [1, 26] [%] | %R percentage reduction in control angiotensin I response [1, 27] [%] | further results |
| --- | --- | --- | --- | --- | --- | --- | --- | --- | --- | --- | --- | --- | --- | --- | --- | --- | --- | --- | --- | --- |
| N-[2-(2,3-dihydro-2-benzofuranyl)-l-(ethoxycarbonyl) -ethyl)-(S)-alanyl -4α-benzyloxy-(S)-nroline [Example 4] | 34 | 29 | 25 | 15 | 14 | 16 | 14 |  |  |  |  |  |  |  |  |  |  |  |  |  |
| N-[4-(2,3-dihydro-2-benzofuranyl)-l-(ethoxycar-α bonyl)-butyl]-(S)-alanyl-4αbenzyloxy-(S)-proline [Example 5] | 61 | 58 | 52 | 47 | 44 | 39 |  | 18 |  |  |  |  |  |  |  |  |  |  |  | % change in heart rate [2, 12]: -2 ± 2%; % change in systolic blood pressure [2, 12]: -10± 3%; % change in heart rate [2, 13]: 0 ± 4%; % change in systolic blood pressure [2, 13]: -7± 2%; % change in heart rate [2, 14]: +5 ± 3%; % change in systolic blood pressure [2, 14]: -23± 1%; % change in heart rate [2, 15]: 0 ± 3%; % change in systolic blood pressure [2, 15]: -17± 1%; % change in heart rate [2, 16]: +9 ± 5%; % change in systolic blood pressure [2, 16]: +1± 3% |
| N-(1-carbethoxy-3-phenylpropyl)-(S)-alanyl-4α-benzyloxy-(S)-proline [Example 2] | 67 | 66 | 61 | 53 | 42 | 47 | 39 | 29 | 23 | 25 | 19 | 82 | 81 | 80 | 69 | 67 | 69 | 65 | 60 | %R percentage reduction in control angiotensin I response ([1]; 0.03 mg/kg i.v, 25 min from dosage): 12%; % change in heart rate [2, 28]: -7 ± 3%; % change in systolic blood pressure [2, 28]: -5± 3%; % change in systolic blood pressure ([2]; 10 mg/kg p.o., 2 hours post dose): -10± 3%; % change in heart rate [2, 29]: -5 ± 4%; % change in systolic blood pressure [2, 29]: -22± 3%; % change in heart rate [2, 30]: 1 ± 4%; % change in systolic blood pressure [2, 30]: -22± 4%; % change in heart rate [2, 31]: -4 ± 3%; % change in systolic blood pressure [2, 31]: -7± 4% |
| N-(1-Carboxypropyl)-(S)-alanyl-4α-benzyloxy-(S)-proline [Example 1] | 60 | 64 | 57 | 41 | 38 | 36 | 32 | 24 | 39 | 29 | 6 | 86 | 80 | 77 | 76 | 77 | 73 | 72 | 74 | IC50 [3]: 3.3 nM |
